Among the data in PubChem BioAssay (NCI) are TGI values, retold here.

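A five-concentration, 48-hour dose response in 96-well plates underlies each endpoint, interpolated linearly between surrounding concentrations. TGI: total growth inhibition.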

Common to all, as to experiment: DTP human tumour cell line panel, 48 h
Test [1] has as its system UACC-62 melanoma.
Test [2] deals with SN12C renal.
In test [3] the test system is NCI/ADR-RES ovarian.
Test [4] concerns HOP-92 NSCLC.
The test system of test [5] is OVCAR-4 ovarian.
The test system of test [6] is K-562 leukemia.
Test [7] has as its system A498 renal.
The subject of test [8] is SF-295 CNS.
The subject of test [9] is HCC-2998 colon.
The subject of test [10] is HOP-62 NSCLC.
Test [11] has as its system PC-3 prostate.
The test system of test [12] is TK-10 renal.
The test system of test [13] is SNB-19 CNS.
Test [14] relates to SK-MEL-5 melanoma.
Test [15] has as its system DU-145 prostate.
Test [16] concerns NCI-H226 lung.
Test [17] deals with SNB-75 CNS.

Take `C#Cc1cc(Br)c(OC(=O)C(C)(C)C)c(-c2cc(C#C)cc(Br)c2OC(=O)C(C)(C)C)c1`: the TGI in test [1], in test [2], in test [3], in test [4], in test [5] and in test [6] was above 100 µM in each case. The concentration for total growth inhibition (TGI) is above 100 µM in test [7]; above 100 µM in test [8]; 90.7 µM in test [9]; above 100 µM in [10]; above 100 µM in test [11]; above 100 µM in [12]. Besides, the TGI in test [13], in test [14] and in test [15] was above 100 µM throughout.
With `O=C(N/N=C/c1ccc([N+](=O)[O-])cc1)Nc1ccc(Br)cc1`, the TGI in [1], in test [16], in test [2], in [3], in [4] and in [17] was above 100 µM each time. Moreover, the TGI in [5] was above 100 µM; in [6], above 100 µM; in test [8] it was above 100 µM; in test [9] it was 90.9 µM; in [10], above 100 µM; in test [11] it was above 100 µM. Also, the TGI in test [12], in test [13], in test [14] and in test [15] was above 100 µM in each case.
For `O/N=C1/CC2(N3CCOCC3)C3CC/C(=N\O)C2CC1(Cc1ccccc1)C3` (stereo not given), the TGI in test [1] is above 100 µM; in [16], above 100 µM; in test [2], above 100 µM; in [3], above 100 µM; in test [17], 96 µM; in test [5], above 100 µM. Further, the TGI in test [6], in test [7], in [8], in [9], in test [10] and in [11] was above 100 µM throughout. Further, the TGI in [13], in test [14] and in [15] was above 100 µM in each case.
As for `CCN(CC)Cc1ccc(C(=S)Nc2ccc(C)cc2)s1`, the concentration for total growth inhibition (TGI) in [1] turned out to be 28.1 µM; in test [3] it was 51.9 µM; in [5], 71 µM; in test [6], 26.4 µM; in test [7] it was 27.2 µM; in [8] it was 28.3 µM. Further, the TGI in test [9] was 25.6 µM; in [10] it was 34.5 µM; in test [11], 31.3 µM; in test [13], 34.7 µM; in test [14], 26.5 µM; in test [15], 56.7 µM.
Turning to `COc1cc2c(cc1OC)C(=O)C1(C2)[C@H](c2ccccc2)C2C(=O)c3cc(OC)c(OC)cc3C2[C@H]1c1ccccc1` (stereo not given in full), the TGI in [1], in test [16], in test [2], in test [3], in test [17] and in test [5] was above 100 µM each time. Moreover, the TGI in [6], in test [7], in [8], in [9], in test [10] and in [11] was above 100 µM throughout. Also, the TGI in test [12], in test [13], in [14] and in test [15] was above 100 µM throughout.
As for `Oc1cc(N2CCCC2)ccc1/C=N/N1C(=S)N(c2ccccc2)C(=Nc2ccccc2)C1=Nc1ccccc1`, the TGI in test [1], in test [16], in test [2], in test [3], in test [4] and in test [6] was above 100 µM in each case. Also, the TGI in [8], in test [9], in test [10], in test [11], in test [12] and in test [13] was above 100 µM in each case. Besides, the TGI in test [14] and in test [15] was above 100 µM each time.
`O=C(CCc1ccccc1)n1cccc1CO`: the total growth inhibition concentration (TGI) in test [1], in test [16], in test [2], in [3], in test [17] and in test [5] was above 100 µM throughout. For the same compound, the TGI in test [6], in test [7], in test [8], in test [9], in test [10] and in [11] was above 100 µM throughout. Besides, the TGI in test [12], in test [13], in test [14] and in test [15] was above 100 µM each time.
As for `CCOC(=O)c1c(C)n(C)c2c1cc(O)c1[nH]c3c(c12)CCCC3`, the TGI in test [1] was determined as 35.8 µM; in [2], 61.3 µM; in [3] it was 54 µM; in [4], 16.8 µM; in [5], 23.5 µM; in test [6], 40.3 µM. Moreover, the TGI in [8] was above 100 µM; in test [10], above 100 µM; in test [11], 46.6 µM; in test [12], 60.9 µM; in test [13], above 100 µM; in [14] it was 25.6 µM. The concentration for total growth inhibition (TGI) in test [15] is above 100 µM.
As to `O=C(O)[C@H](Cc1ccccc1)NCCN1CCC[C@H]1C(=O)O`, the TGI in [1] was above 100 µM; in test [2], above 100 µM; in [3], above 100 µM; in [4] it was 72.3 µM; in test [5], above 100 µM; in test [6] it was above 100 µM. In addition, the TGI in test [7], in [8], in test [10], in test [11], in [13] and in test [14] was above 100 µM in each case. In test [15], this compound registered a TGI above 100 µM.

For orientation: TGI means the concentration at which net growth stops. A lower TGI goes with more potent growth arrest.
